In one assay the target is T1, human S1P1 receptor (Homo sapiens, UniProt P21453).
T1 construct: expressed in transfected cells; membranes used
Briefly: GTP γ35S binding assay for S1P1 activity. The conditions noted are these: membranes of cells stably expressing S1P1 receptor. The assay is classed as biochemical. On the procedure:
Compounds were synthesized and tested for S1P1 activity using the GTP γ^35S binding assay. These compounds may be assessed for their ability to activate or block activation of the human S1P1 receptor in cells stably expressing the S1P1 receptor.
GTP γ^35S binding was measured in the medium containing (mM) HEPES 25, pH 7.4, MgCl2 10, NaCl 100, dithitothreitol 0.5, digitonin 0.003%, 0.2 nM GTP γ^35S, and 5 μg membrane protein in a volume of 150 μl. Test compounds were included in the concentration range from 0.08 to 5,000 nM unless indicated otherwise. Membranes were incubated with 100 μM 5′-adenylylimmidodiphosphate for 30 min, and subsequently with 10 μM GDP for 10 min on ice. Drug solutions and membrane were mixed, and then reactions were initiated by adding GTP γ^35S and continued for 30 min at 25° C. Reaction mixtures were filtered over Whatman GF/B filters under vacuum, and washed three times with 3 mL of ice-cold buffer (HEPES 25, pH7.4, MgCl2 10 and NaCl 100). Filters were dried and mixed with scintillant, and counted for ^35S activity using a β-counter. Agonist-induced GTP γ^35S binding was obtained by subtracting that in the absence of agonist. Binding data were analyzed using a non-linear regression method. In case of antagonist assay, the reaction mixture contained 10 nM […] in the presence of test antagonist at concentrations ranging from 0.08 to 5000 nM.

The next assay has as its system female C57BL6 mice. Briefly: Lymphopenia assay in mice (in vivo blood lymphocyte depletion). The conditions noted are these: subcutaneous, 10 mg/Kg or 2 mg/Kg, 24 hours after dosing, FIG. 1 / FIG. 2. The procedure:
Test drugs are prepared in a solution containing 3% (w/v) 2-hydroxy propyl R-cyclodextrin (HPBCD) and 1% DMSO to a final concentration of 1 mg/ml, and subcutaneously injected to female C57BL6 mice (CHARLES RIVERS) weighing 20-25 g at the dose of 10 mg/Kg. Blood samples are obtained by puncturing the submandibular skin with a Goldenrod animal lancet at 5, 24, 48, 72, and 96 hrs post drug application. Blood is collected into microvettes (SARSTEDT) containing EDTA tripotassium salt. Lymphocytes in blood samples are counted using a HEMAVET Multispecies Hematology System, HEMAVET HV950FS (Drew Scientific Inc.). (Hale, J. et al Bioorg. & Med. Chem. Lett. 14 (2004) 3351).
A lymphopenia assay in mice, as previously described, was employed to measure the in vivo blood lymphocyte depletion after dosing Compounds 9, 10, 11 and 14, (FIG. 1) and Compounds 15, 17, 18 and 20, (FIG. 2). These S1P agonists (or modulators) are useful for S1P-related diseases, and exemplified by the lymphopenia in vivo response. In general, test compounds were prepared in a solution containing 3% (w/v) 2-hydroxy propyl β-cyclodextrin (HPBCD) and 1% DMSO to a final concentration of 1 mg/ml, and subcutaneously injected to female C57BL6 mice (CHARLES RIVERS) weighing 20-25 g at the dose of 10 mg/Kg or 2 mg/Kg. Blood samples were obtained by puncturing the submandibular skin with a Goldenrod animal lancet at 24, 48, 72 and 96 hrs post drug application. Blood was collected into microvettes (SARSTEDT) containing EDTA tripotassium salt. Lymphocytes in blood samples were counted using a HEMAVET Multispecies Hematology System, HEMAVET HV950FS (Drew Scientific Inc.).

21 compounds from US8653050B2, “Phenyl bicyclic methyl amine derivatives as sphingosine-1 phosphate receptors modulators” (Allergan, Inc., priority 2011, dated 2014) can be followed below.

T1 sequence (P21453 whole entry): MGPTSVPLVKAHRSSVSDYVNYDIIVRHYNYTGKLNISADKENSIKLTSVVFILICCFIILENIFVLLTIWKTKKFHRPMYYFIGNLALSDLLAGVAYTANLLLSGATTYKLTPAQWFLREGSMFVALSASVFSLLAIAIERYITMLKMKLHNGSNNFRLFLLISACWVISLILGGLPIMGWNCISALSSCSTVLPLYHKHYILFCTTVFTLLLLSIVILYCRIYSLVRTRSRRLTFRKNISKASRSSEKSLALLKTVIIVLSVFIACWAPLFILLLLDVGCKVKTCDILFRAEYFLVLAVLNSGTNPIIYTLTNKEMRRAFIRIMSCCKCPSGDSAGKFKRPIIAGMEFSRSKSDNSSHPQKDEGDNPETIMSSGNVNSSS

As to `CCCCC(CC)CCc1ccc(-c2ccc(CNCCOP(=O)(O)O)c3ncccc23)cc1F` (centres unmarked) [Compound 23, 2-[({5-[4-(3-ethylheptyl)-3-fluorophenyl]quinolin-8-yl}methyl)amino]ethyl dihydrogen phosphate], on human S1P1 receptor, the EC50 was determined as 2.63 nM.
At human S1P1 receptor, `O=P(O)(O)CCCNCc1ccc(-c2ccc(CCCc3ccccc3)cc2)c2cccnc12` [Compound 6, {3-[({5-[4-(3-phenylpropyl)phenyl]quinolin-8-yl}methyl)amino]propyl}phosphonic acid] registered an EC50 of 8.3 nM.
`CCCCCCc1ccc(-c2ccc(CNCCCP(=O)(O)O)c3ccccc23)cc1` [Compound 3, [3-({[4-(4-hexylphenyl)-1-naphthyl]methyl}amino)propyl]phosphonic acid]: the EC50 at human S1P1 receptor came to 54.2 nM.
Turning to `O=P(O)(O)CCCNCc1ccc(-c2ccc(CCC3CCCCC3)c(F)c2)c2cccnc12` [Compound 20, {3-[({5-[4-(2-cyclohexylethyl)-3-fluorophenyl]quinolin-8-yl}methyl)amino]propyl}phosphonic acid], on human S1P1 receptor, the EC50 worked out at 1.68 nM. Moreover, the “lymphocyte count after 24 hours” value in the assay on female C57BL6 mice is on record as “lowered lymphocyte count”.
At human S1P1 receptor, `CCCCC(CC)CCc1ccc(-c2ccc(CNCCCP(=O)(O)O)c3ncccc23)cc1` (centres unmarked) [Compound 11, {3-[({5-[4-(3-ethylheptyl)phenyl]quinolin-8-yl}methyl)amino]propyl}phosphonic acid] came in with an EC50 of 6.97 nM. Besides, in the assay with female C57BL6 mice, the “lymphocyte count after 24 hours” value is recorded as “lowered lymphocyte count”.
As to `CCCCCCCc1ccc(-c2ccc(CNCCCP(=O)(O)O)c3ncccc23)cc1F` [Compound 10, [3-({[5-(3-fluoro-4-heptylphenyl)quinolin-8-yl]methyl}amino)propyl]phosphonic acid], the EC50 at human S1P1 receptor is 223 nM. For the same compound, the “lymphocyte count after 24 hours” value in the assay with female C57BL6 mice is reported as “lowered lymphocyte count”.
In turn, `CCCCCCCc1ccc(-c2ccc(CNCCCP(=O)(O)O)c3ncccc23)c(F)c1` [Compound 9, [3-({[5-(2-fluoro-4-heptylphenyl)quinolin-8-yl]methyl}amino)propyl]phosphonic acid] came in with an EC50 at human S1P1 receptor of 13.6 nM. For the same compound, in the assay on female C57BL6 mice, the “lymphocyte count after 24 hours” value is listed as “lowered lymphocyte count”.
Regarding `CCCCCCc1ccc(-c2ccc(CNCCCP(=O)(O)O)c3ncccc23)cc1` [Compound 4, [3-({[5-(4-hexylphenyl)quinolin-8-yl]methyl}amino)propyl]phosphonic acid], on human S1P1 receptor, the EC50 was found to be 0.6 nM.
The compound `CCCCC(CC)CCc1ccc(-c2ccc(CNCCCP(=O)(O)O)c3ncccc23)cc1F` (centres unmarked) [Compound 19, {3-[({5-[4-(3-ethylheptyl)-3-fluorophenyl]quinolin-8-yl}methyl)amino]propyl}phosphonic acid] came in with an EC50 on human S1P1 receptor of 2.5 nM.
`CCCCCCc1ccc(-c2ccc(CNCCC(=O)O)c3ncccc23)cc1` [Compound 7, 3-({[5-(4-hexylphenyl)quinolin-8-yl]methyl}amino)propanoic acid] displayed an EC50 on human S1P1 receptor of 872 nM.
Turning to `CCCCCCc1ccc(-c2ccc(CNCCO)c3ncccc23)cc1` [Compound 15, 2-({[5-(4-hexylphenyl)quinolin-8-yl]methyl}amino)ethanol], the EC50 on human S1P1 receptor amounted to 192 nM. For the same compound, in the assay with female C57BL6 mice, the “lymphocyte count after 24 hours” value is reported as “lowered lymphocyte count”.
On human S1P1 receptor, `CCCCC(CC)CCc1ccc(-c2ccc(CNCCO)c3ncccc23)cc1F` (centres unmarked) [Compound 22, 2-[({5-[4-(3-ethylheptyl)-3-fluorophenyl]quinolin-8-yl}methyl)amino]ethanol] returned an EC50 of 137 nM.
Still for that read-out and setting: the same measure for `Cc1ccccc1CCCc1ccc(-c2ccc(CNCCCP(=O)(O)O)c3ncccc23)cc1F` [Compound 16, (3-{[(5-{3-fluoro-4-[3-(2-methylphenyl)propyl]phenyl}quinolin-8-yl)methyl]amino}propyl)phosphonic acid]: 1 nM.
At human S1P1 receptor, `Cc1cccc(CCCc2ccc(-c3ccc(CNCCCP(=O)(O)O)c4ncccc34)cc2F)c1` [Compound 17, (3-{[(5-{3-fluoro-4-[3-(3-methylphenyl)propyl]phenyl}quinolin-8-yl)methyl]amino}propyl)phosphonic acid] yielded an EC50 of 0.3 nM. For the same compound, the “lymphocyte count after 24 hours” value with female C57BL6 mice is on record as “lowered lymphocyte count”.
As for `O=P(O)(O)CCCNCc1ccc(-c2ccc(CCC3CCCCC3)cc2)c2cccnc12` [Compound 14, {3-[({5-[4-(2-cyclohexylethyl)phenyl]quinolin-8-yl}methyl)amino]propyl}phosphonic acid], the EC50 on human S1P1 receptor turned out to be 1.5 nM. For the same compound, the “lymphocyte count after 24 hours” value with female C57BL6 mice is given as “lowered lymphocyte count”.
`CCCCCCc1ccc(-c2ccc(CNCCCP(=O)(O)O)c3ncccc23)cc1F` [Compound 13, [3-({[5-(3-fluoro-4-hexylphenyl)quinolin-8-yl]methyl}amino)propyl]phosphonic acid]: the EC50 at human S1P1 receptor worked out at 1.3 nM.
On the same count and under the same terms, the figure for `O=P(O)(O)CCCNCc1ccc(-c2ccc(CCCc3ccccc3)c(F)c2)c2cccnc12` [Compound 2, {3-[({5-[3-fluoro-4-(3-phenylpropyl)phenyl]quinolin-8-yl}methyl)amino]propyl}phosphonic acid] is 5.95 nM; for `CCCCCCCCc1ccc(-c2ccc(CNCCCP(=O)(O)O)c3ncccc23)cc1` [Compound 12, [3-({[5-(4-octylphenyl)quinolin-8-yl]methyl}amino)propyl]phosphonic acid] it is 11.2 nM.
`Cc1ccc(CCCc2ccc(-c3ccc(CNCCCP(=O)(O)O)c4ncccc34)cc2F)cc1` [Compound 18, (3-{[(5-{3-fluoro-4-[3-(4-methylphenyl)propyl]phenyl}quinolin-8-yl)methyl]amino}propyl)phosphonic acid]: on human S1P1 receptor, the EC50 was 1 nM. For the same compound, the “lymphocyte count after 24 hours” value in the assay with female C57BL6 mice is recorded as “lowered lymphocyte count”.
In the case of `Cc1ccccc1CCCc1ccc(-c2ccc(CNCCCP(=O)(O)O)c3ncccc23)cc1` [Compound 8, (3-{[(5-{4-[3-(2-methylphenyl)propyl]phenyl}quinolin-8-yl)methyl]amino}propyl)phosphonic acid], the response at human S1P1 receptor was half-maximal at 3.8 nM (EC50).
Take `CCCCCCc1ccc(-c2ccc(CNCCOP(=O)(O)O)c3ncccc23)cc1` [Compound 5, 2-({[5-(4-hexylphenyl)quinolin-8-yl]methyl}amino)ethyl dihydrogen phosphate]: the EC50 at human S1P1 receptor amounted to 31.1 nM.
